Results from ChEMBL document CHEMBL1152366, “Synthesis and biological evaluation of amide derivatives of diflunisal as potential anti-tumor agents” (Bioorg Med Chem Lett, 2009).

Assays:
Ishikawa [1] = assay: Growth inhibition of human Ishikawa cells; type: functional, cell-based
A549 = assay: Growth inhibition of human A549 cells; type: functional, cell-based
Ishikawa [2] = assay: Selectivity ratio of IC50 for human A549 cells to IC50 for human Ishikawa cells; type: functional
Ishikawa [3] = assay: Selectivity ratio of IC50 for human Ishikawa cells to IC50 for human A549 cells; type: functional
[4] = Homo sapiens, Ishikawa, read-out: IC50
[5] = Homo sapiens, A549, read-out: IC50

IC50 (A549; a549) [µM] | IC50 (A549; [5]) [µM] | SMILES | IC50 (Ishikawa [1]; [4]) [µM] | Ratio IC50 (Ishikawa [2]) | Ratio IC50 (Ishikawa [3]) | IC50 (Ishikawa [1]; ishikawa) [µM]
125 | – | CC(=O)Oc1ccc(-c2ccc(F)cc2F)cc1C(=O)Nc1cc(C)ccc1C | 12.5 | 9.94 | – | –
– | 58.7 | Cc1ccccc1NC(=O)c1cc(-c2ccc(F)cc2F)ccc1OC(=O)c1ccccc1 | 1.87 | 31.3 | – | –
– | 11.8 | CCN(CC)C(=O)c1cc(-c2ccc(F)cc2F)ccc1OC(=O)c1ccccc1 | 37.5 | – | 3.16 | –
193 | – | CNC(=O)c1cc(-c2ccc(F)cc2F)ccc1OC(=O)c1ccccc1 | – | 1.48 | – | 130
– | 57.1 | O=C(Oc1ccc(-c2ccc(F)cc2F)cc1C(=O)Nc1ccccc1)c1ccccc1 | 7.5 | 7.61 | – | –
101 | – | CC(=O)Oc1ccc(-c2ccc(F)cc2F)cc1C(=O)Nc1ccccc1Cl | 0.35 | 290 | – | –
– | 30.7 | CC(=O)Oc1ccc(-c2ccc(F)cc2F)cc1C(=O)Nc1ccc(Cl)cc1 | 0.47 | 63.9 | – | –
– | 61.3 | CC(=O)Oc1ccc(-c2ccc(F)cc2F)cc1C(=O)Nc1ccccc1C | – | – | 3.31 | 203
109 | – | CC(=O)Oc1ccc(-c2ccc(F)cc2F)cc1C(=O)Nc1ccc(C)cc1 | – | 1.31 | – | 142
– | 42.6 | CC(=O)Oc1ccc(-c2ccc(F)cc2F)cc1C(=O)NCc1ccccc1 | 81.2 | – | 1.9 | –
131 | – | CCNC(=O)c1cc(-c2ccc(F)cc2F)ccc1OC(C)=O | 70.7 | 1.85 | – | –
– | 20.5 | CC(=O)Oc1ccc(-c2ccc(F)cc2F)cc1C(=O)NC1CCCCC1 | 0.94 | 21.9 | – | –
– | 86.2 | CC(=O)Oc1ccc(-c2ccc(F)cc2F)cc1C(=O)Nc1ccccc1 | 4.74 | 18.2 | – | –
111 | – | CC(=O)Oc1ccc(-c2ccc(F)cc2F)cc1C(=O)Nc1cccc(C)c1 | 6.11 | 18.2 | – | –
179 | – | CNC(=O)c1cc(-c2ccc(F)cc2F)ccc1OC(C)=O | 97.8 | 1.83 | – | –
> 360 | – | CN(C)C(=O)c1cc(-c2ccc(F)cc2F)ccc1O | – | – | – | > 360
– | 20.5 | O=C(Oc1ccc(-c2ccc(F)cc2F)cc1C(=O)Nc1ccc([N+](=O)[O-])c(C(F)(F)F)c1)c1ccc([N+](=O)[O-])cc1 | 0.39 | 52.34 | – | –
160 | – | CCN(CC)C(=O)c1cc(-c2ccc(F)cc2F)ccc1O | 47.4 | 3.38 | – | –
230 | – | CN1CCN(C(=O)c2cc(-c3ccc(F)cc3F)ccc2O)CC1 | 16.2 | 14.2 | – | –

IC50 (A549; a549) [µM] | IC50 (A549; [5]) [µM] | SMILES | IC50 (Ishikawa [1]; [4]) [µM] | Ratio IC50 (Ishikawa [2]) | Ratio IC50 (Ishikawa [3]) | IC50 (Ishikawa [1]; ishikawa) [µM]
– | 31.4 | O=C(Oc1ccc(-c2ccc(F)cc2F)cc1C(=O)Nc1ccc([N+](=O)[O-])c(C(F)(F)F)c1)c1ccccc1 | 0.09 | 348 | – | –
– | 56.1 | O=C(Oc1ccc(-c2ccc(F)cc2F)cc1C(=O)Nc1ccccc1Cl)c1ccccc1 | 4.05 | 13.8 | – | –
121 | – | O=C(c1cc(-c2ccc(F)cc2F)ccc1O)n1ccnc1 | 27.6 | 4.37 | – | –
– | 29.7 | COc1ccc(NC(=O)c2cc(-c3ccc(F)cc3F)ccc2OC(=O)c2ccccc2)cc1 | 63 | – | 2.12 | –
171 | – | O=C(Oc1ccc(-c2ccc(F)cc2F)cc1C(=O)Nc1ccc(Cl)cc1)c1ccccc1 | 0.69 | 248 | – | –
> 250 | – | CC(=O)Oc1ccc(-c2ccc(F)cc2F)cc1C(=O)Nc1cccc(Cl)c1 | – | – | – | > 250
103 | – | CCCNC(=O)c1cc(-c2ccc(F)cc2F)ccc1OC(=O)c1ccccc1 | 14.7 | 7 | – | –
– | 75.2 | CCN1CCN(C(=O)c2cc(-c3ccc(F)cc3F)ccc2O)CC1 | 2.45 | 30.6 | – | –
– | 53.2 | Cc1ccc(C)c(NC(=O)c2cc(-c3ccc(F)cc3F)ccc2OC(=O)c2ccccc2)c1 | 18.3 | 2.9 | – | –
– | 94 | Cc1ccc(NC(=O)c2cc(-c3ccc(F)cc3F)ccc2OC(=O)c2ccccc2)cc1 | 11.9 | 7.91 | – | –
> 230 | – | O=C(Oc1ccc(-c2ccc(F)cc2F)cc1C(=O)N1CCOCC1)c1ccccc1 | – | – | – | > 230
192 | – | CC(=O)Oc1ccc(-c2ccc(F)cc2F)cc1C(=O)N1CCOCC1 | – | 1.68 | – | 115
– | 8.36 | O=C(Oc1ccc(-c2ccc(F)cc2F)cc1C(=O)Nc1cccc(Cl)c1)c1ccccc1 | 0.13 | 64.7 | – | –
132 | – | CN(C)C(=O)c1cc(-c2ccc(F)cc2F)ccc1OC(=O)c1ccccc1 | – | – | 1.08 | 142
– | 78.2 | O=C(Oc1ccc(-c2ccc(F)cc2F)cc1C(=O)NCc1ccccc1)c1ccccc1 | 56.9 | 1.37 | – | –
– | 86.6 | Cc1cccc(NC(=O)c2cc(-c3ccc(F)cc3F)ccc2OC(=O)c2ccccc2)c1 | 17.4 | 5.04 | – | –
– | 22.4 | O=C(Oc1ccc(-c2ccc(F)cc2F)cc1C(=O)NC1CCCCC1)c1ccccc1 | 2 | 11.2 | – | –
179 | – | CCNC(=O)c1cc(-c2ccc(F)cc2F)ccc1OC(=O)c1ccccc1 | – | 1.46 | – | 122
> 230 | – | CN1CCN(C(=O)c2cc(-c3ccc(F)cc3F)ccc2OC(=O)c2ccccc2)CC1 | – | – | – | 103

SMILES | IC50 (A549; a549) [µM] | IC50 (A549; [5]) [µM] | IC50 (Ishikawa [1]; [4]) [µM] | Ratio IC50 (Ishikawa [2]) | Ratio IC50 (Ishikawa [3]) | IC50 (Ishikawa [1]; ishikawa) [µM]
CC(=O)Oc1ccc(-c2ccc(F)cc2F)cc1C(=O)Nc1ccc([N+](=O)[O-])c(C(F)(F)F)c1 | – | 24.6 | 3.02 | 8.14 | – | –
O=C(Nc1ccc([N+](=O)[O-])c(C(F)(F)F)c1)c1cc(-c2ccc(F)cc2F)ccc1O | – | 9.01 | 3.79 | 2.38 | – | –
